Some results are limits rather than exact numbers.

human NaV subtype, like NaV 1.7, sequence (Q15858 whole entry): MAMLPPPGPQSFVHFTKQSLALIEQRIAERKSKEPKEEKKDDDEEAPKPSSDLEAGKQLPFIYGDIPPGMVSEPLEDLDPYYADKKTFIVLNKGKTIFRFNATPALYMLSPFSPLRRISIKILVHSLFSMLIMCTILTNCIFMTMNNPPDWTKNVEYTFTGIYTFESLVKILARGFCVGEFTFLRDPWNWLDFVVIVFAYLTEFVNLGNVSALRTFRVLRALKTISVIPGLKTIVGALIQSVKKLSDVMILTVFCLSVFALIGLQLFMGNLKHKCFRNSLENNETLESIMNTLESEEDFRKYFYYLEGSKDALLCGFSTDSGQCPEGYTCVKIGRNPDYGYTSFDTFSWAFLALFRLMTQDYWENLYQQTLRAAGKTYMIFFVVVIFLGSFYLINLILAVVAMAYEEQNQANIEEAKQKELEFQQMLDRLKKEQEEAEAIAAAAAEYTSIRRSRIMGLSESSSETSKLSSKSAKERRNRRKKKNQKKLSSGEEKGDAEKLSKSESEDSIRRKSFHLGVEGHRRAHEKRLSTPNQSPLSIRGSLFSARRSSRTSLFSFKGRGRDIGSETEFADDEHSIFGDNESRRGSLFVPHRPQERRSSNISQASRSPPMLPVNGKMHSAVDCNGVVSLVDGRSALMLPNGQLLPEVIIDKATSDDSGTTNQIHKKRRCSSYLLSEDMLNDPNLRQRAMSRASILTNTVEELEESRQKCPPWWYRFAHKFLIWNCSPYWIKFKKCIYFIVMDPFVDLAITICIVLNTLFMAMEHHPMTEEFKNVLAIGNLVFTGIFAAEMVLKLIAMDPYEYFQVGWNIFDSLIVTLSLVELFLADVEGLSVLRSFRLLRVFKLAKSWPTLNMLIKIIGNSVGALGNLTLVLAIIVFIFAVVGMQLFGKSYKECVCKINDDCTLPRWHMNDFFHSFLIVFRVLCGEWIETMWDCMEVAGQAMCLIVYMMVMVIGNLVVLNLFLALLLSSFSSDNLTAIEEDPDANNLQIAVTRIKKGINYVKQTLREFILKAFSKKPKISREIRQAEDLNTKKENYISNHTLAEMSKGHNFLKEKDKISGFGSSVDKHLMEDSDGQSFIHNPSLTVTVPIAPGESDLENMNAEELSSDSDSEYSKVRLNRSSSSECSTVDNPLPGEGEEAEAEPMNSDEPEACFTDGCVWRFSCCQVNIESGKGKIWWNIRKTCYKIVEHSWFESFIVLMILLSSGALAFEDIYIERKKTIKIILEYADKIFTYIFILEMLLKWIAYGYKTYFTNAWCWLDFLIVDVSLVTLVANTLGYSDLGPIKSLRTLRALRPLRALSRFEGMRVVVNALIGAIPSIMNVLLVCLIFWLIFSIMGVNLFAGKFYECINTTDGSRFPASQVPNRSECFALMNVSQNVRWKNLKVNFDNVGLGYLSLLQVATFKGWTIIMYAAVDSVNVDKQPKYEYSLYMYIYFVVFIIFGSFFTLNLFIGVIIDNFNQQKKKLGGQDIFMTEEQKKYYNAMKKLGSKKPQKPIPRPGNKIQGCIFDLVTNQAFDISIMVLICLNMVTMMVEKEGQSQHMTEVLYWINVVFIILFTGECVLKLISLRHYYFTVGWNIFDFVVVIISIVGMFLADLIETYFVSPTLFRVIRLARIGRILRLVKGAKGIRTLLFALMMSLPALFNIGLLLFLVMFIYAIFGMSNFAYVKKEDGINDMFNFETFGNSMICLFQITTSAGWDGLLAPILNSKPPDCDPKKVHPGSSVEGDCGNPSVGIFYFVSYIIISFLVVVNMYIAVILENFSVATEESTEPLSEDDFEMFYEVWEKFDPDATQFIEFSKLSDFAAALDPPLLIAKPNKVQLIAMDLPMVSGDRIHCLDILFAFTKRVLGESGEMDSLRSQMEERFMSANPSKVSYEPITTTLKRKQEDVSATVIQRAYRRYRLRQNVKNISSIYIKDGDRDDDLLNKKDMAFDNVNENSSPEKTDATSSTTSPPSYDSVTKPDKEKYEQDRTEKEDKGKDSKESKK

This test has as its target human NaV subtype, like NaV 1.7 (Homo sapiens, UniProt Q15858). The test is described as follows: E-VIPR optical membrane potential assay with electrical stimulation. It counts as cell-based. The following applies: active against one or more sodium channels; assay and NaV subtype not specified for Table 3; read-out: IC50 Binned Activity Data. The text has this: Assays for Detecting and Measuring NaV Inhibition Properties of Compound E-VIPR Optical Membrane Potential Assay Method with Electrical Stimulation
Sodium channels are voltage-dependent proteins that can be activated by inducing membrane voltage changes by applying electric fields. The electrical stimulation instrument and methods of use are described in Ion Channel Assay Methods PCT/US01/21652, herein incorporated by reference and are referred to as E-VIPR. The instrument comprises a microtiter plate handler, an optical system for exciting the coumarin dye while simultaneously recording the coumarin and oxonol emissions, a waveform generator, a current- or voltage-controlled amplifier, and a device for inserting electrodes in well. Under integrated computer control, this instrument passes user-programmed electrical stimulus protocols to cells within the wells of the microtiter plate.
24 hours before the assay on E-VIPR, HEK cells expressing human NaV subtype, like NaV 1.7, are seeded in 384-well poly-lysine coated plates at 15,000-20,000 cells per well. Other subtypes are performed in an analogous mode in a cell line expressing the NaV of interest. HEK cells are grown in media (exact composition is specific to each cell type and NaV subtype) supplemented with 10% FBS (Fetal Bovine Serum, qualified; GibcoBRL #16140-071) and 1% Pen-Strep (Penicillin-Streptomycin; GibcoBRL #15140-122). Cells are grown in vented cap flasks, in 90% humidity and 10% CO2, to 100% confluence. They are usually split by trypsinization 1:10 or 1:20, depending on scheduling needs, and grown for 2-3 days before the next split.
100 mg/mL Pluronic F-127 (Sigma #P2443), in dry DMSO
Compound Plates: 384-well round bottom plate, e.g. Corning 384-well Polypropylene Round Bottom #3656
Cell Plates: 384-well tissue culture treated plate, e.g. Greiner #781091-1B
Bath1 buffer. Glucose 10 mM (1.8 g/L), Magnesium Chloride (Anhydrous), 1 mM (0.095 g/L), Calcium Chloride, 2 mM (0.222 g/L), HEPES 10 mM (2.38 g/L), Potassium Chloride, 4.5 mM (0.335 g/L), Sodium Chloride 160 mM (9.35 g/L).
Hexyl Dye Solution: Bath1 Buffer+0.5% β-cyclodextrin (make this prior to use, Sigma #C4767), 8 μM CC2-DMPE+2.5 μM DiSBAC6(3). To make the solution Add volume of 10% Pluronic F127 stock equal to volumes of CC2-DMPE+DiSBAC6(3). The order of preparation is first mix Pluronic and CC2-DMPE, then add DiSBAC6(3) while vortexing, then add Bath1+β-Cyclodextrin.
1) Pre-spot compounds (in neat DMSO) into compound plates. Vehicle control (neat DMSO), the positive control (20 mM DMSO stock tetracaine, 125 μM final in assay) and test compounds are added to each well at 160× desired final concentration in neat DMSO. Final compound plate volume will be 80 μL (80-fold intermediate dilution from 1 μL DMSO spot; 160-fold final dilution after transfer to cell plate). Final DMSO concentration for all wells in assay is 0.625%.
2) Prepare Hexyl Dye Solution.
3) Prepare cell plates. On the day of the assay, medium is aspirated and cells are washed three times with 100 μL of Bath1 Solution, maintaining 25 μL residual volume in each well.
4) Dispense 25 μL per well of Hexyl Dye Solution into cell plates. Incubate for 20-35 minutes at room temp or ambient conditions.
5) Dispense 80 μL per well of Bath1 into compound plates. Acid Yellow-17 (1 mM) is added and Potassium Chloride can be altered from 4.5 to 20 mM depending on the NaV subtype and assay sensitivity.
6) Wash cell plates three times with 100 μL per well of Bath1, leaving 25 μL of residual volume. Then transfer 25 uL per well from Compound Plates to Cell Plates. Incubate for 20-35 minutes at room temp/ambient condition
7) Read Plate on E-VIPR. Use the current-controlled amplifier to deliver stimulation wave pulses for typically 9 seconds and a scan rate of 400 Hz. A pre-stimulus recording is performed for 0.5 seconds to obtain the un-stimulated intensities baseline. […]
One may read the IC50 as the concentration needed to halve the response being measured. In the case of `CC(C)O[C@H]1CC2(CCN(C(=O)c3ccc4[nH]ncc4c3)CC2)Oc2ccccc21` [Compound 65], the IC50 lay within 2 to 5 µM. As for `Cc1cc(C(=O)N2CCC3(CC2)CC(OC(C)C)c2cccc(F)c2O3)ccc1S(=O)(=O)C(C)C` (stereo not drawn) [Compound 90], the figure is at most 2 µM. As to `CC(C)O[C@@H]1CC2(CCN(C(=O)c3ccc(SC(C)C)cc3)CC2)Oc2ccc(F)cc21` [Compound 53], the IC50 was at most 2 µM. In the case of `CC(C)Oc1ccc(C(=O)N2CCC3(CC2)C[C@@H](OC(C)C)c2ccccc2O3)c(F)c1` [Compound 74], the IC50 is at most 2 µM. For `CC(C)OC1CC2(CCN(C(=O)c3ccc(C(C)(C)O)c(F)c3)CC2)Oc2cc(F)ccc21` (stereo not drawn) [Compound 118], the IC50 is at most 2 µM.

As to `CC(C)Oc1ccc(C(=O)N2CCC3(CC2)C[C@@H](OC(C)C)c2cc(F)ccc2O3)cc1CN(C)C` [Compound 173], the IC50 is at most 2 µM.

Regarding `COc1cc(C(=O)N2CCC3(CC2)CC(OC)c2ccccc2O3)ccc1OC(C)C` (stereo not drawn) [Compound 142], the IC50 is at most 2 µM. Regarding `CCc1ccc(C(=O)N2CCC3(CC2)C[C@@H](OC(C)C)c2cc(F)ccc2O3)cc1OC` [Compound 126], the IC50 was at most 2 µM. On to `CCC1COCCN1c1ccc(C(=O)N2CCC3(CC2)C[C@@H](OC(C)C)c2cc(F)ccc2O3)nc1` (stereo partly drawn) [Compound 93], for which the concentration for half-maximal inhibition (IC50) is at most 2 µM. As for `CCCNc1ccc(C(=O)N2CCC3(CC2)C[C@@H](OC(C)C)c2cc(F)ccc2O3)nc1` [Compound 178], the 50% inhibitory concentration (IC50) is at most 2 µM. For the compound `Cc1nc(C(=O)N2CCC3(CC2)C[C@@H](OC(C)C)c2cc(F)ccc2O3)ccc1S(=O)(=O)C(C)C` [Compound 101], the half-inhibitory concentration (IC50) was over 5 µM. On to `CC(C)O[C@@H]1CC2(CCN(C(=O)c3ccc(S(=O)(=O)C(C)C)cc3)CC2)Oc2ccc(F)cc21` [Compound 68], for which the IC50 is at most 2 µM. Consider `CC(C)OC1CC2(CCN(C(=O)c3ccc(S(=O)(=O)C(C)C)c(C#N)c3)CC2)Oc2ccc(F)cc21` (stereo not drawn) [Compound 29], for which the half-maximal inhibitory concentration (IC50) was at most 2 µM. As for `COc1cc(C(=O)N2CCC3(CC2)Oc2ccccc2C(OC(C)C)C3(C)C)ccc1OC(C)C` (stereo not drawn) [Compound 151], the half-maximal inhibitory concentration (IC50) is at most 2 µM. As for `CC(C)O[C@@H]1CC2(CCN(C(=O)c3ccc4c(cnn4C)c3)CC2)Oc2ccccc21` [Compound 137], the figure is at most 2 µM; as for `CC(C)O[C@@H]1CC2(CCN(C(=O)c3ccc(C(C)(C)O)c(F)c3)CC2)Oc2ccccc21` [Compound 31], at most 2 µM; as for `CC(C)O[C@@H]1CC2(CCN(C(=O)c3ccc(C(C)(C)O)c(F)c3)CC2)Oc2ccc(F)cc21` [Compound 48], at most 2 µM. Regarding `COc1cc(C(=O)N2CCC3(CC2)CC(Oc2ccccc2C#N)c2ccccc2O3)ccc1OC(C)C` (stereo not drawn) [Compound 152], the concentration for half-maximal inhibition (IC50) was at most 2 µM. For `Cc1nc(C(=O)N2CCC3(CC2)C[C@@H](OC(C)C)c2ccccc2O3)ccc1OC(C)C` [Compound 80], the concentration for half-maximal inhibition (IC50) was at most 2 µM. Regarding `CC(C)O[C@@H]1CC2(CCN(C(=O)c3ccc4[nH]ncc4c3)CC2)Oc2ccccc21` [Compound 28], the IC50 lay in the range of 2 to 5 µM. With `Cc1nc(C(=O)N2CCC3(CC2)C[C@H](OC(C)C)c2ccccc2O3)ccc1OC(C)C` [Compound 107], the half-maximal inhibitory concentration (IC50) was at most 2 µM.

Turning to `CC(C)OC1CC2(CCN(C(=O)c3ccc(S(=O)(=O)CC4CC4)cn3)CC2)Oc2ccc(F)cc21` (stereo not drawn) [Compound 30], the IC50 lay in the range of 2 to 5 µM.

With `Cc1cc(S(=O)(=O)C(C)C)ccc1C(=O)N1CCC2(CC1)C[C@@H](OC(C)C)c1cc(F)ccc1O2` [Compound 11], the IC50 was at most 2 µM. As for `CNCc1cc(C(=O)N2CCC3(CC2)C[C@@H](OC(C)C)c2cc(F)ccc2O3)ccc1OC(C)C` [Compound 15], the 50% inhibitory concentration (IC50) is over 5 µM. For `CCOc1ccc(C(=O)N2CCC3(CC2)C[C@@H](OC(C)C)c2cc(F)ccc2O3)nc1` [Compound 129], the half-maximal inhibitory concentration (IC50) is 2 to 5 µM. In the case of `Cc1cc(C(=O)N2CCC3(CC2)CC(OC(C)C)c2ccccc2O3)ccc1OC(C)C` (stereo not drawn) [Compound 141], the half-maximal inhibitory concentration (IC50) was at most 2 µM. Turning to `CC(C)O[C@@H]1CC2(CCN(C(=O)c3ccc(N4CCC[C@@H]4C)cn3)CC2)Oc2ccc(F)cc21` [Compound 67], the half-inhibitory concentration (IC50) was at most 2 µM. For `COc1cc(C(=O)N2CCC3(CC2)C[C@@H](OC(C)C)c2cc(F)ccc2O3)ccc1C(C)(C)O` [Compound 10], the concentration for half-maximal inhibition (IC50) is at most 2 µM. `Cc1cc(C(=O)N2CCC3(CC2)C[C@H](OC(C)C)c2ccccc2O3)ccc1O` [Compound 149]: the concentration for half-maximal inhibition (IC50) was at most 2 µM. In the case of `COCOC1Cc2ccccc2OC12CCN(C(=O)c1ccc(OC(C)C)c(OC)c1)CC2` (stereo not drawn) [Compound 135], the half-inhibitory concentration (IC50) is at most 2 µM. `Cc1cc(C(=O)N2CCC3(CCc4ccccc4O3)CC2)ccc1OC(C)C` [Compound 96]: the IC50 is at most 2 µM. Take `COc1cc(C(=O)N2CCC3(CC2)CC(COCC(F)F)c2ccccc2O3)ccc1OC(C)C` (stereo not drawn) [Compound 23]: the IC50 was at most 2 µM. In the case of `COc1ccccc1C(=O)N1CCC2(CC1)CC(C(C)C)c1ccccc1O2` (stereo not drawn) [Compound 40], the IC50 was over 5 µM.

Regarding `CC(C)OC1CC2(CCN(C(=O)c3ccccc3OC(F)(F)F)CC2)Oc2ccccc21` (stereo not drawn) [Compound 157], the IC50 was at most 2 µM. Regarding `CC(C)O[C@@H]1CC2(CCN(C(=O)c3ccc(N4CC5CC4CO5)cn3)CC2)Oc2ccc(F)cc21` (stereo partly drawn) [Compound 95], the IC50 is at most 2 µM. On to `COc1cc(C(=O)N2CCC3(CC2)CC(Oc2cccnc2)c2ccccc2O3)ccc1OC(C)C` (stereo not drawn) [Compound 145], for which the IC50 is at most 2 µM. For the compound `CC(C)Oc1ccc(C(=O)N2CCC3(CC2)C[C@@H](OC(C)C)c2cc(F)ccc2O3)cc1C#N` [Compound 164], the half-inhibitory concentration (IC50) is at most 2 µM. For `CC(C)Oc1ccc(C(=O)N2CCC3(CC2)C[C@@H](OC(C)C)c2cc(F)ccc2O3)c(OC(F)F)c1` [Compound 55], the half-inhibitory concentration (IC50) was at most 2 µM.

Consider `COc1cc(C(=O)N2CCC3(CC2)C[C@@H](OC(C)C)c2ccccc2O3)ccc1C(C)(C)O` [Compound 57], for which the concentration for half-maximal inhibition (IC50) was at most 2 µM. Regarding `CCS(=O)(=O)c1ccc(C(=O)N2CCC3(CC2)C[C@@H](OC(C)C)c2cc(F)ccc2O3)cc1C` [Compound 9], the IC50 was at most 2 µM. As for `CCO[C@@H]1CC2(CCN(C(=O)c3ccc(S(=O)(=O)C(F)F)cc3)CC2)Oc2ccc(F)cc21` [Compound 121], the figure is over 5 µM; as for `COc1cc(C(=O)N2CCC3(CC2)CC(COC(C)C)c2ccccc2O3)ccc1C(C)(C)O` (stereo not drawn) [Compound 163], at most 2 µM; as for `CC(C)O[C@@H]1CC2(CCN(C(=O)c3ccc(S(=O)(=O)C(C)C)cn3)CC2)Oc2ccc(F)cc21` [Compound 175], at most 2 µM. With `CC(C)O[C@@H]1CC2(CCN(C(=O)c3ccc(N4CCC[C@H]4C)cn3)CC2)Oc2ccc(F)cc21` [Compound 75], the 50% inhibitory concentration (IC50) was at most 2 µM. For `COc1cc(C(=O)N2CCC3(CC2)CC(OCc2cccnc2)c2ccccc2O3)ccc1OC(C)C` (stereo not drawn) [Compound 105] the value was at most 2 µM; for `CCOc1ccc(C(=O)N2CCC3(CC2)C[C@@H](OC(C)C)c2ccccc2O3)cc1F` [Compound 125], at most 2 µM. For the compound `Cc1cc(C(=O)N2CCC3(CC2)C[C@H](OC(C)C)c2ccccc2O3)ccc1C(C)(C)O` [Compound 26], the IC50 was at most 2 µM. With `COc1cc(C(=O)N2CCC3(CC2)Oc2ccccc2CC3OC)ccc1OC(C)C` (stereo not drawn) [Compound 165], the concentration for half-maximal inhibition (IC50) is at most 2 µM.

Values taken from patent US10385070B2, “Chroman-spirocyclic piperidine amides as modulators of ion channels” (VERTEX PHARMACEUTICALS INCORPORATED, priority 2011, dated 2019).
